{"source": "patent US11786494B2", "about": "“Methods of modulation of branched chain acids and uses thereof” (Baylor College of Medicine, priority 2009, dated 2023)", "key": {"BCKDC kinase (BDK)": {"target": "BCKDC kinase (BDK) (Rattus norvegicus, UniProt Q00972)", "assay": "Protection of E1 from BDK induced phosphorylation and inactivation", "assay_type": "biochemical", "details": "for kcat, KIC / kcat, KIV / kcat, KMV / Km: E1 decarboxylase activity, [+] Phenylbutyrate^b", "protocol": "(§1) To determine the effect of phenylbutyrate on individual BCAA catabolic enzymes, activities of mitochondrial branched chain amino transferase (BCATm) and BCKDC enzymes were measured with and without phenylbutyrate using purified recombinant enzymes. BCATm generates the BCKA products that are elevated in MSUD and are the substrates for BCKDC. BCATm activity was measured at pH 8.0 and 298 K as described in Example 2. Kinetics of the E1 decarboxylase reaction with and without phenylbutyrate were determined in the presence of an artificial electron acceptor 2, 6-dichlorophenolindophenol (DCPIP). The assay mixture contained 100 mM potassium phosphate, pH 7.5, 2.0 mM MgCl2, 0.2 mM thiamin diphosphate (ThDP) and 0.1 mM DCPIP. The rate of decarboxylation at 30° C. was measured by monitoring the reduction of the dye at 600 nm (24, 25). For the overall BCKDC activity assay, the enzymes were exchanged into phosphate buffer (30 mM potassium phosphate, pH 7.5) containing 5 mM DTT using a PD-10 column and the enzyme concentrations were calculated from the absorption maxima at 280 nm. The protein complex was reconstituted with E1, lipoylated E2 (lip-E2) and E3 at a molar ratio of 12:1:55, in which lip-E2 exists as a 24-mer. The assay mixture contained 30 mM potassium phosphate pH 7.5, 100 mM NaCl, 3 mM NAD^+, 0.4 mM CoA, 2 mM MgCl2, 2 mM DTT, 0.1% Triton X-100, and 2 mM ThDP. The overall reaction was monitored by formation of NADH at 340 nm. The apparent rate constants (kapp) at different substrate concentrations for all of the above assays were determined from the absorption changes at the individual wavelength maximum. The kapp rate constants were fit using the following equation: kapp=kcat[S]/(Km+[S])\nThe phosphorylation of E1 was carried out in the phosphorylation reaction mix (30 mM HEPES, pH 7.4, 2 mM DTT, 1.5 mM MgCl2, and 0.2 mM EGTA) with and without addition of phenylbutyrate. E1, E2, and E3 proteins were mixed at 12:1:55 molar ratio in a 0.1 ml reaction mix, and 0.1 μg of maltose-binding protein-tagged rat BCKDC kinase (BDK) was added. The mix was pre-incubated at room temperature for 15 minutes. The phosphorylation reaction was started after addition of 0.4 mM ATP to the reaction mix, and the reaction was terminated at different time points by addition of higher salt concentration. Overall BCKDC activity was measured as described above."}, "phosphorylated E1": {"target": "T1, phosphorylated E1 (Homo sapiens, UniProt P12694+P21953)", "T1 sequence (P12694 46-445)": "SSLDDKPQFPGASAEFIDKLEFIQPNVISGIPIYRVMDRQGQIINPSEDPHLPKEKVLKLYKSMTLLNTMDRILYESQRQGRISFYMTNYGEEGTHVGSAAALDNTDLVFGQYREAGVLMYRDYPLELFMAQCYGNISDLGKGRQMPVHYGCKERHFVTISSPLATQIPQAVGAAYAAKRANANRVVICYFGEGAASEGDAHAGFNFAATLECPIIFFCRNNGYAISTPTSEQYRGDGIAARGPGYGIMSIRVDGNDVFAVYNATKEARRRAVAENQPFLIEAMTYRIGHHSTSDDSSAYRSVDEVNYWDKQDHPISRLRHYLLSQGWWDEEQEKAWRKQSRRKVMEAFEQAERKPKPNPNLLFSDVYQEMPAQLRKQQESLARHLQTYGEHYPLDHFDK", "T1 sequence (P21953 51-392)": "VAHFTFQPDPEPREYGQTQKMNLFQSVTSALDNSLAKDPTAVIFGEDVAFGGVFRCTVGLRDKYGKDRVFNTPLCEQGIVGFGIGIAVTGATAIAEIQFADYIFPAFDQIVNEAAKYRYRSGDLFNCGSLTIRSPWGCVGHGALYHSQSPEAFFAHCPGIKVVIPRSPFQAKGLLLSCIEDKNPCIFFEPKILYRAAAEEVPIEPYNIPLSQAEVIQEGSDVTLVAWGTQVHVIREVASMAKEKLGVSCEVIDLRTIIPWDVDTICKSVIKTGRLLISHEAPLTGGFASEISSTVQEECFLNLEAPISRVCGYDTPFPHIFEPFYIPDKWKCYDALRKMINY", "assay": "E1 decarboxylase activity measured after inactivation by BDK", "assay_type": "biochemical", "protocol": "as §1, with “The protein complex was reconstituted with E1, lipoylated E2 (lip-E2) and E3 at a molar ratio of 12:1:55, in which lip-E2 exists as a 24-mer. The assay mixture contained 30 mM potassium phosphate pH 7.5, 100 mM NaCl, 3 mM NAD^+, 0.4 mM CoA, 2 mM MgCl2, 2 mM DTT, 0.1% Triton X-100, and 2 mM ThDP.” left out, “The kapp rate constants were fit using the following equation: kapp=kcat[S]/(Km+[S])” left out"}, "[1]": {"test_system": "E1α-phospho/E1α, E2, BCATm, BCATc", "assay": "Western blotting of BCKD complex and BCAT isozymes in lymphoblast cells", "assay_type": "cell-based, human"}, "BCKDC [2]": {"test_system": "BCKDC", "assay": "Leucine oxidation in lymphoblast cells in presence of CIC", "assay_type": "cell-based, human", "details": "patient 3 lymphoblasts, 1 mM phenylbutyrate 48 h, 1 mM CIC in the assay", "protocol": "(§2) FIGS. 8A-8C. FIGS. 8A and 8B show leucine oxidation in presence of CIC in lymphoblast cells from control subjects (C-660, C-661) and MSUD patients (P-1, -2, -3, -4, -5) untreated or treated with 1 mM phenylbutyrate for 48 h. Leucine oxidation was measured by using radioactive assay as described in Materials and Methods and is expressed in pmol CO2 released/min/mg protein. CIC was added to all reactions in 1 mM concentration. Values are means±SD (n=3), * p≥0.05, **p≥0.01. […] Images are representative of two independent experiments.\n(§3) Because phenylbutyrate affects E1α phosphorylation state in vivo (see FIG. 5), leucine oxidation was measured in the same cell lines as in FIG. […] with CIC in the assay. […] Changes in BCAT isoenzyme activity also impacts BCKA production, in specific cases. All patient cell lines accumulated more KIC than observed in control cell lines."}, "BCKDC [3]": {"target": "T2, BCKDC (Homo sapiens, UniProt P12694+P21953)", "T2 sequence (P12694 46-445)": "T1 sequence (P12694 46-445)", "T2 sequence (P21953 51-392)": "T1 sequence (P21953 51-392)", "assay": "Leucine oxidation in lymphoblast cells in presence of CIC", "assay_type": "cell-based", "set-up": "Transformed lymphoblast cell lines were available from all 5 MSUD patients and from 2 controls to measure BCKDC activity; endogenous in cells", "details": "control lymphoblasts, 1 mM phenylbutyrate 48 h, 1 mM CIC in the assay", "protocol": "as §2, §3"}, "[4]": {"target": "T3, E1 (unphosphorylated) of BCKDC (Homo sapiens, UniProt P12694+P21953)", "T3 sequence (P12694 46-445)": "T1 sequence (P12694 46-445)", "T3 sequence (P21953 51-392)": "T1 sequence (P21953 51-392)", "assay": "E1 catalyzed decarboxylase activity (DCPIP assay)", "assay_type": "biochemical", "protocol": "as §1, with “The protein complex was reconstituted with E1, lipoylated E2 (lip-E2) and E3 at a molar ratio of 12:1:55, in which lip-E2 exists as a 24-mer. The assay mixture contained 30 mM potassium phosphate pH 7.5, 100 mM NaCl, 3 mM NAD^+, 0.4 mM CoA, 2 mM MgCl2, 2 mM DTT, 0.1% Triton X-100, and 2 mM ThDP.” left out, “The kapp rate constants were fit using the following equation: kapp=kcat[S]/(Km+[S])” left out"}}, "note": "Read-outs that look alike come from different tables or passages of the source.", "data": [{"smiles": "O=C([O-])CCCc1ccccc1.[Na+]", "note": "[phenylbutyrate, sodium 4-phenylbutyrate]", "values": [{"measurement": "phosphorylation and inactivation of E1 in the presence of BCKDC kinase", "setting": "BCKDC kinase (BDK)", "value": "prevent completely"}, {"measurement": "kcat, KIC", "setting": "BCKDC kinase (BDK); [+] BDK", "value": "0.343 ± 0.0417", "unit": "s⁻¹"}, {"measurement": "kcat, KIV", "setting": "BCKDC kinase (BDK); [+] BDK", "value": "0.433 ± 0.0367", "unit": "s⁻¹"}, {"measurement": "kcat, KMV", "setting": "BCKDC kinase (BDK); [+] BDK", "value": "0.367 ± 0.03", "unit": "s⁻¹"}, {"measurement": "Km", "setting": "BCKDC kinase (BDK); [+] BDK, read-out: Km, KIC", "value": "21 ± 1.9", "unit": "µM"}, {"measurement": "Km", "setting": "BCKDC kinase (BDK); [+] BDK, read-out: Km, KIV", "value": "25 ± 2", "unit": "µM"}, {"measurement": "Km", "setting": "BCKDC kinase (BDK); [+] BDK, read-out: Km, KMV", "value": "21 ± 3", "unit": "µM"}, {"measurement": "kcat, KIC", "setting": "BCKDC kinase (BDK); [−] BDK", "value": "0.33 ± 0.0283", "unit": "s⁻¹"}, {"measurement": "kcat, KIV", "setting": "BCKDC kinase (BDK); [−] BDK", "value": "0.467 ± 0.0317", "unit": "s⁻¹"}, {"measurement": "kcat, KMV", "setting": "BCKDC kinase (BDK); [−] BDK", "value": "0.333 ± 0.0183", "unit": "s⁻¹"}, {"measurement": "Km", "setting": "BCKDC kinase (BDK); [−] BDK, read-out: Km, KIC", "value": "27 ± 2", "unit": "µM"}, {"measurement": "Km", "setting": "BCKDC kinase (BDK); [−] BDK, read-out: Km, KIV", "value": "20 ± 3", "unit": "µM"}, {"measurement": "Km", "setting": "BCKDC kinase (BDK); [−] BDK, read-out: Km, KMV", "value": "18 ± 2", "unit": "µM"}, {"measurement": "effect on phosphorylated E1 (inactive enzyme)", "setting": "phosphorylated E1", "value": "did not have an effect"}, {"measurement": "kcat, KMV", "setting": "phosphorylated E1; E1 phosphorylated first with BDK (0.1 μg) and ATP (0.4 mM), [+] Phenylbutyrate", "value": "0.01 ± 0.0017", "unit": "s⁻¹"}, {"measurement": "levels of cytosolic isozyme BCATc", "setting": "[1]; all of the lymphoblasts but patient 5, 1 mM 48 h", "value": "appeared to increase"}, {"measurement": "levels of the mitochondrial isozyme BCATm", "setting": "[1]; both controls and patients 1 through 3, 1 mM 48 h", "value": "slightly elevated"}, {"measurement": "phosphorylation state of E1α", "setting": "[1]; lymphoblasts from controls and patients 1, 2 and 3, 1 mM phenylbutyrate 48 h", "value": "Neither the controls nor patients 1, 2 and 3 responded"}, {"measurement": "phosphorylation state of E1α", "setting": "[1]; lymphoblasts from patients 4 and 5, 1 mM phenylbutyrate 48 h, no apparent change in E1 levels", "value": "decrease"}, {"measurement": "leucine oxidation rates", "setting": "BCKDC [2]", "value": "nearly doubled"}, {"measurement": "leucine oxidation", "setting": "BCKDC [3]", "value": "increased"}, {"measurement": "kcat, KMV", "setting": "[4]; E1 catalyzed decarboxylase activity, [+] Phenylbutyrate", "value": "0.3 ± 0.0167", "unit": "s⁻¹"}, {"measurement": "unphosphorylated E1 (fully active enzyme) catalyzed decarboxylation of all three BCKA", "setting": "[4]; increased kcat, lowered Km", "value": "enhanced"}]}]}
